Where “and” joins values, the source holds several entries; their conditions need not be identical. Equal values may be shown once.
Tests used:
Experiment in all cases: radiometric filter-binding kinase assay, Kinase HotSpot
Conditions in all cases: compound 0.5 µM; ATP 10 µM
[1] = molecular target: ACVR1 (human) (UniProt Q04771)
[2] = molecular target: ALK (human) (UniProt Q9UM73)
[3] = molecular target: AURKC (human) (UniProt Q9UQB9)
[4] = molecular target: CDK6 CCND1 (human) (UniProt Q00534+P24385)
[5] = molecular target: CHEK2 (human) (UniProt O96017)
[6] = molecular target: CHUK (human) (UniProt O15111)
[7] = molecular target: CLK3 (human) (UniProt P49761)
[8] = molecular target: EPHA4 (human) (UniProt P54764)
[9] = molecular target: ERBB2 (human) (UniProt P04626)
[10] = molecular target: FGFR4 (human) (UniProt P22455)
[11] = molecular target: IRAK1 (human) (UniProt P51617)
Chain of IRAK1 (human) (P51617 whole entry, looked up): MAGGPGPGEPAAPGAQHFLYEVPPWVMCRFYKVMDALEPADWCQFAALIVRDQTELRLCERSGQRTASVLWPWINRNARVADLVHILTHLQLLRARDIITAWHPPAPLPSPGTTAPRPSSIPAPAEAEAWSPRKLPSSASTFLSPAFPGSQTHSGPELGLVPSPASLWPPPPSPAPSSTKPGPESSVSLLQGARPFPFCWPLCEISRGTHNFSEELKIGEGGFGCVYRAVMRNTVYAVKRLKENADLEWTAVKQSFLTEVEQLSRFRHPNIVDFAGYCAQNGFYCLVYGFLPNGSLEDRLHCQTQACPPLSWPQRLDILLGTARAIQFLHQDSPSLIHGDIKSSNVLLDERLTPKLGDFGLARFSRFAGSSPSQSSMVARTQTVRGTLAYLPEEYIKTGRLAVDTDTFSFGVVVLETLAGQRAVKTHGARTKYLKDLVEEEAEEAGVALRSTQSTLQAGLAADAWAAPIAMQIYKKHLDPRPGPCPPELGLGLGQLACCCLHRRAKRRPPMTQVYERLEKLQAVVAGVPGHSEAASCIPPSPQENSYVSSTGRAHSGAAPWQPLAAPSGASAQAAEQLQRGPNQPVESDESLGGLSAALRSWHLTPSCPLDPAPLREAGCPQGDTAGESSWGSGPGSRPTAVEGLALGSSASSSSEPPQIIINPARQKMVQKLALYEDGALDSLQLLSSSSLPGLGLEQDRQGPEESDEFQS

[12] = molecular target: JAK3 JH1 JH2 (human) (UniProt P52333)
[13] = molecular target: KDR (human) (UniProt P35968)
Chain of KDR (human) (P35968 whole entry, looked up): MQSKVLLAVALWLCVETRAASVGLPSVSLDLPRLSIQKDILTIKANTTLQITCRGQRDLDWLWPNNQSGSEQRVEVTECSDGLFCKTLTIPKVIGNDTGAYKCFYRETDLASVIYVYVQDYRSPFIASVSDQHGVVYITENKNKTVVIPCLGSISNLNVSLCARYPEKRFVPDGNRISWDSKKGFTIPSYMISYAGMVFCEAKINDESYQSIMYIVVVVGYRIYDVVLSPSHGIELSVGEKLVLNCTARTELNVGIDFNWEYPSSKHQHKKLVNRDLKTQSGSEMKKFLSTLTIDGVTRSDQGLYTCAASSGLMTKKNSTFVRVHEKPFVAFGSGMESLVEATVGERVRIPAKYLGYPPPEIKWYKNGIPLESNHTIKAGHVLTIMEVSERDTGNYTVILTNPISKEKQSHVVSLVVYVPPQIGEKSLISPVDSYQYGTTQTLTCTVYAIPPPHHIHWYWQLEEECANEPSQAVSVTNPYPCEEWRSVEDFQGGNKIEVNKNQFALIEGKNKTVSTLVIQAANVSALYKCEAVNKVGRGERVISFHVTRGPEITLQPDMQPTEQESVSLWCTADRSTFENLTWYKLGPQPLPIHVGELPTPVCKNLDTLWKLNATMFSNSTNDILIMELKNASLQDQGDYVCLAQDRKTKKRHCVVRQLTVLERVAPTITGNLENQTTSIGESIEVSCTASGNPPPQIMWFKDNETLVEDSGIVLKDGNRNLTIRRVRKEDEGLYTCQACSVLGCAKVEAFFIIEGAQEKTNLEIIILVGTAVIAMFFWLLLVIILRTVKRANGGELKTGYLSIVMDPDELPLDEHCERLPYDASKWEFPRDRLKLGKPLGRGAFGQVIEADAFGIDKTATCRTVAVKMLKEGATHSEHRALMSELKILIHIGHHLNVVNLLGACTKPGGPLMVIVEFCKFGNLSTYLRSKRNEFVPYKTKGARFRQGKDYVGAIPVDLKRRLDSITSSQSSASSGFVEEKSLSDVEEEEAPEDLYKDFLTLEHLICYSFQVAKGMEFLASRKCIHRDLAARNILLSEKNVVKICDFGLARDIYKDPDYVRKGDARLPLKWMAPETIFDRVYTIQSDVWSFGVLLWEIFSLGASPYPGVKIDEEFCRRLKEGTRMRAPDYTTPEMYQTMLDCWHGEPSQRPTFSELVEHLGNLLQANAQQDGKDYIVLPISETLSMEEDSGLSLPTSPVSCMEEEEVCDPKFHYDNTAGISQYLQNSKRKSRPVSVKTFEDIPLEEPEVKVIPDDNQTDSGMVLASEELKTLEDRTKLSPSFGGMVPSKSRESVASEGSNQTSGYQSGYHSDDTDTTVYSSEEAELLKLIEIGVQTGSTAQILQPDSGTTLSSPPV

[14] = molecular target: KIT (human) (UniProt P10721)
[15] = molecular target: MAPK1 (human) (UniProt P28482)
[16] = molecular target: MAPK10 (human) (UniProt P53779)
[17] = molecular target: MAPK12 (human) (UniProt P53778)
Chain of MAPK12 (human) (P53778 whole entry, looked up): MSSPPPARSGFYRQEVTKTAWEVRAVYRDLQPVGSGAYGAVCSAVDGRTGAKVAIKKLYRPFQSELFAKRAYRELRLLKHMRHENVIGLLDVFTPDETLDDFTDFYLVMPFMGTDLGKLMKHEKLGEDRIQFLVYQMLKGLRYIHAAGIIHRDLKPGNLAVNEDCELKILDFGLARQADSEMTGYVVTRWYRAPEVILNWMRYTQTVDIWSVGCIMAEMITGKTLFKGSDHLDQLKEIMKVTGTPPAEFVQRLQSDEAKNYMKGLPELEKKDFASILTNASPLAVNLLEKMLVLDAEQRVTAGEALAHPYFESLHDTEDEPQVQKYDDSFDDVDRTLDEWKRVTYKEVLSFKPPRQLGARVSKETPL

[18] = molecular target: MAPK13 (human) (UniProt O15264)
[19] = molecular target: MARK1 (human) (UniProt Q9P0L2)
[20] = molecular target: MELK (human) (UniProt Q14680)
[21] = molecular target: MST1R (human) (UniProt Q04912)
[22] = molecular target: MST4 (human) (UniProt Q9P289)
[23] = molecular target: MYLK (human) (UniProt Q15746)
[24] = molecular target: NEK4 (human) (UniProt P51957)
[25] = molecular target: NEK6 (human) (UniProt Q9HC98)
[26] = molecular target: NEK7 (human) (UniProt Q8TDX7)
Chain of NEK7 (human) (Q8TDX7 whole entry, looked up): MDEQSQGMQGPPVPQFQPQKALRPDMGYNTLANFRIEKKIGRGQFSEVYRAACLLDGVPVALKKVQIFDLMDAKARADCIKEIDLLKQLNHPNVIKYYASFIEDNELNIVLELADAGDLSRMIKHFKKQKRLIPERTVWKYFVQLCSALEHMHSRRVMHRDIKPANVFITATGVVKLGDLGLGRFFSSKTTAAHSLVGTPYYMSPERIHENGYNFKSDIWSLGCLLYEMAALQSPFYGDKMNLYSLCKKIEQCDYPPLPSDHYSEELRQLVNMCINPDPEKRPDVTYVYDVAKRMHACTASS

[27] = molecular target: NUAK2 (human) (UniProt Q9H093)
[28] = molecular target: PASK (human) (UniProt Q96RG2)
[29] = molecular target: PIM3 (human) (UniProt Q86V86)
[30] = molecular target: PRKCA (human) (UniProt P17252)
[31] = molecular target: PRKCH (human) (UniProt P24723)
[32] = molecular target: PRKCZ (human) (UniProt Q05513)
[33] = molecular target: PRKD2 (human) (UniProt Q9BZL6)
[34] = molecular target: PRKG1 (human) (UniProt Q13976)
[35] = molecular target: ROCK1 (human) (UniProt Q13464)
[36] = molecular target: RPS6KA1 KD1 KD2 (human) (UniProt Q15418)
[37] = molecular target: RPS6KB1 (human) (UniProt P23443)
[38] = molecular target: RPS6KB2 (human) (UniProt Q9UBS0)
[39] = molecular target: SGK2 (human) (UniProt Q9HBY8)
[40] = molecular target: SRPK1 (human) (UniProt Q96SB4)
[41] = molecular target: TEC (human) (UniProt P42680)
[42] = molecular target: ULK1 (human) (UniProt O75385)
Chain of ULK1 (human) (O75385 whole entry, looked up): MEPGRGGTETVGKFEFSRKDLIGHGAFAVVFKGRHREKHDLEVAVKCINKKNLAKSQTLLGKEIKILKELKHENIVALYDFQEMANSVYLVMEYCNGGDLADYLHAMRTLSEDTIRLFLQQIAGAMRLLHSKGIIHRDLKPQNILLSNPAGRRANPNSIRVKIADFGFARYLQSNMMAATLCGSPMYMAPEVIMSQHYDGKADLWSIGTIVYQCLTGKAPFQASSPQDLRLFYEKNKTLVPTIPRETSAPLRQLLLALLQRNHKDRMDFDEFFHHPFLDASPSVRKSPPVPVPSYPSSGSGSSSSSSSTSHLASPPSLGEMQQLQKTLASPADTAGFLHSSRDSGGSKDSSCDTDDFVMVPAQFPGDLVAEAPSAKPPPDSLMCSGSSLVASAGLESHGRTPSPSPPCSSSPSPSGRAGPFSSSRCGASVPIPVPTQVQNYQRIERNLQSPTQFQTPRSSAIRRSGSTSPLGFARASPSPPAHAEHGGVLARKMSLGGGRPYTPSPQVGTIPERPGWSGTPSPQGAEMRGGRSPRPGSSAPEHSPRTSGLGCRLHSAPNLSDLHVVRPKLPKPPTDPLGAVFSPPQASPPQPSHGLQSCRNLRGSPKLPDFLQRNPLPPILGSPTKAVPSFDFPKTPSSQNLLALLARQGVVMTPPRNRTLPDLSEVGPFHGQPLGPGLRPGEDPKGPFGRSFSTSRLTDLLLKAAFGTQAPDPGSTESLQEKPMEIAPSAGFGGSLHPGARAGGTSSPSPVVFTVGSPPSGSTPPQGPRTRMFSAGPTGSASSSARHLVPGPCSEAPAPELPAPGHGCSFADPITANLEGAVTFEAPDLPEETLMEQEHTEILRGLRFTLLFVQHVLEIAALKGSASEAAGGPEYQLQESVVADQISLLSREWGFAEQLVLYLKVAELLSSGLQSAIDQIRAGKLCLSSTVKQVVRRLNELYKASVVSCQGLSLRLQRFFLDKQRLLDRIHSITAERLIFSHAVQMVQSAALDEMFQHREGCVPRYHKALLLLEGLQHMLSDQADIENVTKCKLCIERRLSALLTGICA

Chain of ACVR1 (human) (Q04771 whole entry, looked up): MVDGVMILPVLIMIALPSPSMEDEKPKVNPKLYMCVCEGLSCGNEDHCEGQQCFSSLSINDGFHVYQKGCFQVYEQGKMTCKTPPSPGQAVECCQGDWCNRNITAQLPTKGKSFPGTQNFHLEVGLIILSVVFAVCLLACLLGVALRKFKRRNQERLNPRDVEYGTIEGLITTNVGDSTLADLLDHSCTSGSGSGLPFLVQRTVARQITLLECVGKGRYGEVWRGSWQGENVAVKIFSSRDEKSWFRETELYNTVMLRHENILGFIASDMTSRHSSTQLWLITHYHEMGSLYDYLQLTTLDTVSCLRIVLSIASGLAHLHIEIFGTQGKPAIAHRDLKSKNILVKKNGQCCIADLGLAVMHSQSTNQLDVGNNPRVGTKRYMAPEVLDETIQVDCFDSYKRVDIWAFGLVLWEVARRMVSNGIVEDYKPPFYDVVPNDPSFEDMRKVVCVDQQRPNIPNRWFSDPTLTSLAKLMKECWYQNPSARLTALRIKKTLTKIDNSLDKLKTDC

`CC(C)(C)c1cc(C=C(C#N)C#N)cc(Br)c1O` was tested, and the residual activity [1] was 102%, the residual activity [2] was 97.9% and the residual activity [3] was 87.6%. The residual activity [4] was 99.1%, the residual activity [5] was 104% and the residual activity [6] was 89.7%. It also gave a residual activity [7] of 122%, a residual activity [8] of 94.7% and a residual activity [9] of 95.7%. It also gave a residual activity [10] of 98%, a residual activity [11] of 105% and a residual activity [12] of 110%. For the same molecule, the residual activity [13] was 97.8%, the residual activity [14] was 97.9% and the residual activity [15] was 91.3%. It also gave a residual activity [16] of 92.5%, a residual activity [17] of 102% and a residual activity [18] of 98.5%. For the same molecule, the residual activity [19] was 98.8%, the residual activity [20] was 91.6% and the residual activity [21] was 105%. It also gave a residual activity [22] of 95.2%, a residual activity [23] of 90.6% and a residual activity [24] of 93.7%. For the same molecule, the residual activity [25] was 111%, the residual activity [26] was 89.5% and the residual activity [27] was 99.6%. The residual activity [28] was 96.7%, the residual activity [29] was 89.1% and the residual activity [30] was 81.4%. The residual activity [31] was 100%, the residual activity [32] was 102% and the residual activity [33] was 108%. For the same molecule, the residual activity [34] was 103% and 107%, the residual activity [35] was 82.9% and the residual activity [36] was 104%. The residual activity [37] was 91.3%, the residual activity [38] was 102% and the residual activity [39] was 120%. For the same molecule, the residual activity [40] was 101%, the residual activity [41] was 171% and the residual activity [42] was 88.2%.

In the case of `COc1cc2ncnc(Nc3ccc(OCc4ccccc4)cc3)c2cc1OC`, the residual activity [1] is reported as 101%, the residual activity [2] is reported as 103% and the residual activity [3] is reported as 84.8%. For the same molecule, the residual activity [4] was 96.7%, the residual activity [5] was 14.2% and the residual activity [6] was 95.1%. It also gave a residual activity [7] of 98.2%, a residual activity [8] of 98.5% and a residual activity [9] of 42.6%. The residual activity [10] was 106%, the residual activity [11] was 97.4% and the residual activity [12] was 108%. It also gave a residual activity [13] of 96.8%, a residual activity [14] of 63% and a residual activity [15] of 100%. It also gave a residual activity [16] of 84.5%, a residual activity [17] of 102% and a residual activity [18] of 103%. For the same molecule, the residual activity [19] was 103%, the residual activity [20] was 102% and the residual activity [21] was 106%. For the same molecule, the residual activity [22] was 91.6%, the residual activity [23] was 95% and the residual activity [24] was 86.9%. The residual activity [25] was 97.6%, the residual activity [26] was 101% and the residual activity [27] was 101%. It also gave a residual activity [28] of 98.6%, a residual activity [29] of 119% and a residual activity [30] of 93.9%. It also gave a residual activity [31] of 97.2%, a residual activity [32] of 113% and a residual activity [33] of 101%. For the same molecule, the residual activity [34] was 90.3% and 99.3%, the residual activity [35] was 96.6% and the residual activity [36] was 90.2%. The residual activity [37] was 95.1%, the residual activity [38] was 108% and the residual activity [39] was 100%. It also gave a residual activity [40] of 105%, a residual activity [41] of 106% and a residual activity [42] of 107%.

For `COc1ccc(C(=O)Nc2sc3c(c2C(N)=O)CCCC3)cc1OC`, the residual activity [1] was 159%, the residual activity [2] was 66.2% and the residual activity [3] was 97.2%. For the same molecule, the residual activity [4] was 95.1%, the residual activity [5] was 93% and the residual activity [6] was 83.3%. For the same molecule, the residual activity [7] was 63%, the residual activity [8] was 104% and the residual activity [9] was 93.3%. It also gave a residual activity [10] of 105%, a residual activity [11] of 79.8% and a residual activity [12] of 108%. For the same molecule, the residual activity [13] was 78.2%, the residual activity [14] was 46.2% and the residual activity [15] was 91.2%. It also gave a residual activity [16] of 84.5%, a residual activity [17] of 96.5% and a residual activity [18] of 109%. For the same molecule, the residual activity [19] was 97.9%, the residual activity [20] was 46% and the residual activity [21] was 105%. For the same molecule, the residual activity [22] was 96.6%, the residual activity [23] was 41.2% and the residual activity [24] was 104%. It also gave a residual activity [25] of 92.7%, a residual activity [26] of 99% and a residual activity [27] of 99.5%. It also gave a residual activity [28] of 101%, a residual activity [29] of 109% and a residual activity [30] of 96.6%. It also gave a residual activity [31] of 101%, a residual activity [32] of 89.3% and a residual activity [33] of 99.4%. The residual activity [34] was 87.5% and 97%, the residual activity [35] was 107% and the residual activity [36] was 87%. The residual activity [37] was 84.3%, the residual activity [38] was 101% and the residual activity [39] was 100%. For the same molecule, the residual activity [40] was 82.6%, the residual activity [41] was 115% and the residual activity [42] was 96%.
